Measurements as given in US7427418B2, “Phloridzin-rich phenolic fraction and use thereof as a cosmetic, dietary or nutraceutical agent” (Diana Ingredients S.A., priority 2001, dated 2008).

Columns and labels:
[1] = Water solubility of the powder; assay type: physicochemical; conditions: in words
[2] = test system: plasmid DNA damaged by OH° radical (hydrogen peroxide + UVB); assay: "3D" test (Damaged DNA Detection): protection of DNA against OH° radicals; assay type: biochemical; conditions: for Specific protection: OH° radical
Procedure: The free-radical-scavenging effects of the phloridzin-rich polyphenolic fractions obtained according to the process of the invention were measured in vitro by the “3D” test (Damaged DNA Detection, Analytical Biochemistry, (1995), pp. 37-42).
The principle is based on repairing DNA lesions, the damaged DNA being used as a marker of protective efficacy of the test molecules with respect to free OH^∘ radicals: the reduction in lesions observed on the DNA is correlated with the trapping of the free radicals.
This test carried out on plasmid DNA allows the detection of genotoxic agents at the early stage of the lesion-mutation-cancerization process. Molecules or mixtures with antioxidant or free-radical-scavenging properties, which can thus protect a human cell from oxidative damage caused by reactive oxygenated species (ROSs), can thus be detected.
The protocol was as follows: • the target DNA was adsorbed onto sensitized wells and then incubated with genotoxic agents in the presence or absence of the polyphenolic extract to be tested (dissolved in an ethanol solution at 2% or in DMSO) or in the presence of catechin (control). In this test, the OH^∘ radical produced by homolytic cleavage of hydrogen peroxide was used as DNA-damaging genotoxic agent. The hydrogen peroxide was added to the wells, which were then irradiated with UVB rays (700 J/m^2). Furthermore, a positive repair control consisting of a plasmid DNA predamaged with ultraviolet C radiation was added; • a step of washing with ultrapure water and then with a dioxane solution at 20% in ultrapure water for 5 minutes at 30° C. with gentle stirring made it possible to remove the non-specific interactions between the sample and the test, due to the presence of macromolecules such as proteins that may interfere with the repair signal; • a repair step was performed in the presence of purified cell extracts (which contain the active enzymes of the various DNA lesion repair pathways) and of biotin-coupled modified nucleotides (dUTP). The repair of the lesions involved a phase of excision of the lesions followed by a resynthesis of the DNA fragment or of excised bases. […] The light signal observed and read on the luminometer was proportional to the amount of lesions repaired.
The percentage of protection observed in the presence of ROSs was calculated as the relative reduction of the lesional effect due to the OH^∘ species, that is to say: % protection={[RLU oxidant−RLU (oxidant+sample)]/RLU oxidant}×100 • where RLU=relative light units (arbitrary units of quantity of light).
The specific percentage of protection was corrected by the percentage of non-specific inhibition measured on the samples predamaged with UVC. It is an indication of the free-radical-scavenging activity due to the only added extracts.
The IC50 is the concentration in mg/ml of test product which gives 50% protective activity against the genotoxic agent OH^∘. The lower the value, the greater the antioxidant activity of the test product.

Water solubility [1]	Compound	Specific protection ([2]; concentration 0.016 mg/ml) [%]	Specific protection ([2]; concentration 0.06 mg/ml) [%]	Specific protection ([2]; concentration 0.25 mg/ml) [%]	Specific protection ([2]; concentration 1 mg/ml) [%]	IC50 ([2]; concentration giving 50% protective activity against the genotoxic agent OH°) [µg/mL]
very low solubility	O=C(CCc1ccc(O)cc1)c1c(O)cc(O)cc1O [phloretin]	–	–	–	–	–
–	Catechin	16	28	52	65	240
